Source: the supplement of paper PMC10307832

What was measured:
Assay in all cases: relative viability (nuclei count vs DMSO), 5 days (fraction); higher = more cells survive
Tozasertib + Bortezomib = compound: Cc1cc(Nc2cc(N3CCN(C)CC3)nc(Sc3ccc(NC(=O)C4CC4)cc3)n2)n[nH]1 [Tozasertib] + CC(C)C[C@H](NC(=O)[C@H](Cc1ccccc1)NC(=O)c1cnccn1)B(O)O [Bortezomib] (partner 0.002 µM)
How it was run: (§1)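 Lung cancer cell lines in 1536-well plates were dosed by pin tool the day after seeding, either with one drug alone or with a fixed anchor-drug dose plus five library-drug doses (not always all listed) in √10 steps. After 5 days, cells were fixed and their nuclei stained in one step (final 0.05% Triton X-100, 1% formaldehyde, 1 ug/ml Hoechst), then counted on 4× images. Relative viability is the nuclei count in treated wells divided by that in vehicle wells. Values are medians of duplicate plates.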

Tozasertib + Alpelisib = compound: Cc1cc(Nc2cc(N3CCN(C)CC3)nc(Sc3ccc(NC(=O)C4CC4)cc3)n2)n[nH]1 [Tozasertib] + Cc1nc(NC(=O)N2CCC[C@H]2C(N)=O)sc1-c1ccnc(C(C)(C)C(F)(F)F)c1 [Alpelisib] (partner 2 µM)
How it was run: as §1

Tozasertib + Crizotinib = compound: Cc1cc(Nc2cc(N3CCN(C)CC3)nc(Sc3ccc(NC(=O)C4CC4)cc3)n2)n[nH]1 [Tozasertib] + C[C@@H](Oc1cc(-c2cnn(C3CCNCC3)c2)cnc1N)c1c(Cl)ccc(F)c1Cl [Crizotinib] (partner 1 µM)
How it was run: as §1

Tozasertib + Foretinib = compound: Cc1cc(Nc2cc(N3CCN(C)CC3)nc(Sc3ccc(NC(=O)C4CC4)cc3)n2)n[nH]1 [Tozasertib] + COc1cc2c(Oc3ccc(NC(=O)C4(C(=O)Nc5ccc(F)cc5)CC4)cc3F)ccnc2cc1OCCCN1CCOCC1 [Foretinib] (partner 0.25 µM)
How it was run: as §1

Tozasertib + Lapatinib = compound: Cc1cc(Nc2cc(N3CCN(C)CC3)nc(Sc3ccc(NC(=O)C4CC4)cc3)n2)n[nH]1 [Tozasertib] + CS(=O)(=O)CCNCc1ccc(-c2ccc3ncnc(Nc4ccc(OCc5cccc(F)c5)c(Cl)c4)c3c2)o1 [Lapatinib] (partner 2 µM)
How it was run: as §1

Tozasertib + Olaparib = compound: Cc1cc(Nc2cc(N3CCN(C)CC3)nc(Sc3ccc(NC(=O)C4CC4)cc3)n2)n[nH]1 [Tozasertib] + O=C(c1cc(Cc2n[nH]c(=O)c3ccccc23)ccc1F)N1CCN(C(=O)C2CC2)CC1 [Olaparib] (partner 8 µM)
How it was run: as §1

Tozasertib + Navitoclax = compound: Cc1cc(Nc2cc(N3CCN(C)CC3)nc(Sc3ccc(NC(=O)C4CC4)cc3)n2)n[nH]1 [Tozasertib] + CC1(C)CCC(c2ccc(Cl)cc2)=C(CN2CCN(c3ccc(C(=O)NS(=O)(=O)c4ccc(N[C@H](CCN5CCOCC5)CSc5ccccc5)c(S(=O)(=O)C(F)(F)F)c4)cc3)CC2)C1 [Navitoclax] (partner 0.5 µM)
How it was run: as §1

Tozasertib + Linsitinib = compound: Cc1cc(Nc2cc(N3CCN(C)CC3)nc(Sc3ccc(NC(=O)C4CC4)cc3)n2)n[nH]1 [Tozasertib] + C[C@]1(O)C[C@@H](c2nc(-c3ccc4ccc(-c5ccccc5)nc4c3)c3c(N)nccn32)C1 [Linsitinib] (partner 1 µM)
How it was run: as §1

Tozasertib + Pictilisib = compound: Cc1cc(Nc2cc(N3CCN(C)CC3)nc(Sc3ccc(NC(=O)C4CC4)cc3)n2)n[nH]1 [Tozasertib] + CS(=O)(=O)N1CCN(Cc2cc3nc(-c4cccc5[nH]ncc45)nc(N4CCOCC4)c3s2)CC1 [Pictilisib] (partner 1 µM)
How it was run: as §1

Tozasertib = compound: Cc1cc(Nc2cc(N3CCN(C)CC3)nc(Sc3ccc(NC(=O)C4CC4)cc3)n2)n[nH]1 [Tozasertib]
How it was run: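 MetaXpress counted nuclei in 4× images of lung cancer cell lines that had been fixed, permeabilised and Hoechst-stained in one step. Before that, cells in 1536-well plates were kept overnight at 37 °C, pinned with five √10-spaced library-drug doses on vehicle-anchored plates, and cultured 5 days without medium change. Viability takes treated-well nuclei over vehicle-well nuclei and uses the median across plates. Plates were accepted only at control CV below 25% and at least one doubling.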

Tozasertib + Luminespib = compound: Cc1cc(Nc2cc(N3CCN(C)CC3)nc(Sc3ccc(NC(=O)C4CC4)cc3)n2)n[nH]1 [Tozasertib] + CCNC(=O)c1noc(-c2cc(C(C)C)c(O)cc2O)c1-c1ccc(CN2CCOCC2)cc1 [Luminespib] (partner 0.01 µM)
How it was run: as §1

Tozasertib + OSI-027 = compound: Cc1cc(Nc2cc(N3CCN(C)CC3)nc(Sc3ccc(NC(=O)C4CC4)cc3)n2)n[nH]1 [Tozasertib] + COc1cccc2cc(-c3nc([C@H]4CC[C@H](C(=O)O)CC4)n4ncnc(N)c34)[nH]c12 [OSI-027] (partner 0.5 µM)
How it was run: as §1

Tozasertib + Phenformin = compound: Cc1cc(Nc2cc(N3CCN(C)CC3)nc(Sc3ccc(NC(=O)C4CC4)cc3)n2)n[nH]1 [Tozasertib] + N=C(N)NC(=N)NCCc1ccccc1 [Phenformin] (partner 250 µM)
How it was run: as §1

Tozasertib + Dasatinib = compound: Cc1cc(Nc2cc(N3CCN(C)CC3)nc(Sc3ccc(NC(=O)C4CC4)cc3)n2)n[nH]1 [Tozasertib] + Cc1nc(Nc2ncc(C(=O)Nc3c(C)cccc3Cl)s2)cc(N2CCN(CCO)CC2)n1 [Dasatinib] (partner 0.075 µM)
How it was run: as §1

NCI-H1299
relative viability (Tozasertib + Bortezomib; first compound 0.004 µM): 1.07 | relative viability (Tozasertib + Bortezomib; first compound 0.01265 µM): 1.01 | relative viability (Tozasertib + Bortezomib; first compound 0.04 µM): 1.02 | relative viability (Tozasertib + Bortezomib; first compound 0.1265 µM): 1.03 | relative viability (Tozasertib + Alpelisib; first compound 0.004 µM): 1.08 | relative viability (Tozasertib + Alpelisib; first compound 0.01265 µM): 1.13 | relative viability (Tozasertib + Alpelisib; first compound 0.04 µM): 1.04 | relative viability (Tozasertib + Alpelisib; first compound 0.1265 µM): 1.05 | relative viability (Tozasertib + Crizotinib; first compound 0.004 µM): 0.998 | relative viability (Tozasertib + Crizotinib; first compound 0.01265 µM): 0.996 | relative viability (Tozasertib + Crizotinib; first compound 0.04 µM): 0.952 | relative viability (Tozasertib + Crizotinib; first compound 0.1265 µM): 0.761 | relative viability (Tozasertib + Foretinib; first compound 0.004 µM): 1.17 | relative viability (Tozasertib + Foretinib; first compound 0.01265 µM): 1.07 | relative viability (Tozasertib + Foretinib; first compound 0.04 µM): 1.08 | relative viability (Tozasertib + Foretinib; first compound 0.1265 µM): 0.499 | relative viability (Tozasertib + Lapatinib; first compound 0.004 µM): 1.03 | relative viability (Tozasertib + Lapatinib; first compound 0.01265 µM): 0.947 | relative viability (Tozasertib + Lapatinib; first compound 0.1265 µM): 0.703 | relative viability (Tozasertib + Olaparib; first compound 0.004 µM): 0.982 | relative viability (Tozasertib + Olaparib; first compound 0.01265 µM): 0.939 | relative viability (Tozasertib + Olaparib; first compound 0.04 µM): 0.943 | relative viability (Tozasertib + Olaparib; first compound 0.1265 µM): 0.961 | relative viability (Tozasertib + Navitoclax; first compound 0.004 µM): 1.1 | relative viability (Tozasertib + Navitoclax; first compound 0.01265 µM): 1.04 | relative viability (Tozasertib + Navitoclax; first compound 0.04 µM): 1.06 | relative viability (Tozasertib + Navitoclax; first compound 0.1265 µM): 1.07 | relative viability (Tozasertib + Linsitinib; first compound 0.004 µM): 0.952 | relative viability (Tozasertib + Linsitinib; first compound 0.01265 µM): 0.979 | relative viability (Tozasertib + Linsitinib; first compound 0.04 µM): 0.988 | relative viability (Tozasertib + Linsitinib; first compound 0.1265 µM): 0.597 | relative viability (Tozasertib + Pictilisib; first compound 0.004 µM): 0.951 | relative viability (Tozasertib + Pictilisib; first compound 0.01265 µM): 0.808 | relative viability (Tozasertib + Pictilisib; first compound 0.04 µM): 0.75 | relative viability (Tozasertib + Pictilisib; first compound 0.1265 µM): 0.615 | relative viability (Tozasertib; 0.004 µM): 1.04 | relative viability (Tozasertib; 0.01265 µM): 1.02 | relative viability (Tozasertib; 0.04 µM): 1.01 | relative viability (Tozasertib; 0.1265 µM): 1.02

NCI-H1623
relative viability (Tozasertib + Foretinib; first compound 0.004 µM): 0.781 | relative viability (Tozasertib + Foretinib; first compound 0.01265 µM): 0.829 | relative viability (Tozasertib + Foretinib; first compound 0.04 µM): 0.898 | relative viability (Tozasertib + Foretinib; first compound 0.1265 µM): 0.761 | relative viability (Tozasertib + Luminespib; first compound 0.004 µM): 0.43 | relative viability (Tozasertib + Luminespib; first compound 0.04 µM): 0.473 | relative viability (Tozasertib + Luminespib; first compound 0.1265 µM): 0.505 | relative viability (Tozasertib + OSI-027; first compound 0.004 µM): 0.45 | relative viability (Tozasertib + OSI-027; first compound 0.01265 µM): 0.428 | relative viability (Tozasertib + OSI-027; first compound 0.04 µM): 0.487 | relative viability (Tozasertib + OSI-027; first compound 0.1265 µM): 0.453 | relative viability (Tozasertib + Phenformin; first compound 0.004 µM): 0.552 | relative viability (Tozasertib + Phenformin; first compound 0.01265 µM): 0.541 | relative viability (Tozasertib + Phenformin; first compound 0.04 µM): 0.583 | relative viability (Tozasertib + Phenformin; first compound 0.1265 µM): 0.526 | relative viability (Tozasertib + Dasatinib; first compound 0.004 µM): 0.549 | relative viability (Tozasertib + Dasatinib; first compound 0.01265 µM): 0.515 | relative viability (Tozasertib + Dasatinib; first compound 0.04 µM): 0.536 | relative viability (Tozasertib + Dasatinib; first compound 0.1265 µM): 0.556 | relative viability (Tozasertib; 0.004 µM): 0.859 | relative viability (Tozasertib; 0.01265 µM): 0.965 | relative viability (Tozasertib; 0.04 µM): 0.966 | relative viability (Tozasertib; 0.1 µM, anchor plate): 0.434 | relative viability (Tozasertib; 0.1265 µM): 0.929
